Columns and labels:
DGKα = DGKα (Homo sapiens (Human), UniProt P23743); experiment: In vitro DGKα inhibition assay (ADP-Glo); type: biochemical; settings: first column of Table A; His-tagged human recombinant DGKα 0.1 nM, 50 μM ATP, 20 μM DLG
Method: (§1) The DGKα and DGKζ biochemical reactions were performed using His-tagged human recombinant enzymes (Signal Chem, DGKα, #D21-10BH; DGKζ, #D30-1OH)) and DLG (Dilauroyl-sn-glycerol) lipid substrate (Signal Chem, #D430-59). ADP-Glo assay was performed using ADP-Glo™ kinase Assay kit (Promega, #V9104). The reactions were carried out in assay buffer containing 40 mM Tris, pH 7.5, 0.1% CHAPS, 0.1% Prionex, 40 mM NaCl, 5 mM MgCl2, 1 mM CaCl2, and 1 mM DTT. DGKα reactions contained 0.1 nM DGKα, 50 μM ATP, and 20 μM DLG. And DGKζ reactions contained 0.4 nM DGKζ, 30 μM ATP, and 20 μM DLG.
(§2) For compound inhibition studies, 40 nL test compound in DMSO was added to wells of white polystyrene plates in 384-well (Greiner, #784075) or 1536-well format (Greiner, #782075). Compounds were added with top concentration of 2 mM with 11 point, 3-fold dilution series. Enzyme solution (contains 2× DGK enzyme concentration in 1× assay buffer) was added to the plate in 2 μL/well volume, followed by 2 μL/well of substrate solution (contains 2× concentration of ATP and DLG substrate in 1× assay buffer). Plates were then centrifuged for 1 min at 1200 RPM and sealed or lidded. For 4 μL reaction volume, test compounds were therefore diluted 100× to final top concentration of 20 μM. After 90 minute incubation, reactions were quenched by addition of 2 μL/well Promega ADP-Glo Reagent, followed by centrifugation and lidding. After 60 min incubation, 2 μL/well Promega Kinase Detection Reagent was added, plates centrifuged, and incubated for 30 min. Plates were then read using Luminescence method on BMG PHERAstar FSX plate reader. Percent inhibition was calculated and IC50s were determined using 4-parameter fit in Genedata Screener. Labcyte Echo acoustic dispenser was used for compound addition, and Formulatrix Tempest liquid handler was used for all reagent dispenses.

DGKζ = DGKζ (Homo sapiens (Human), UniProt Q13574); experiment: In vitro DGKζ inhibition assay (ADP-Glo); type: biochemical; settings: second column of Table A, head printed DGKα, presumably DGKζ; His-tagged human recombinant DGKζ 0.4 nM, 30 μM ATP, 20 μM DLG
Method: as §1, §2

Sequence of DGKα (P23743 whole entry): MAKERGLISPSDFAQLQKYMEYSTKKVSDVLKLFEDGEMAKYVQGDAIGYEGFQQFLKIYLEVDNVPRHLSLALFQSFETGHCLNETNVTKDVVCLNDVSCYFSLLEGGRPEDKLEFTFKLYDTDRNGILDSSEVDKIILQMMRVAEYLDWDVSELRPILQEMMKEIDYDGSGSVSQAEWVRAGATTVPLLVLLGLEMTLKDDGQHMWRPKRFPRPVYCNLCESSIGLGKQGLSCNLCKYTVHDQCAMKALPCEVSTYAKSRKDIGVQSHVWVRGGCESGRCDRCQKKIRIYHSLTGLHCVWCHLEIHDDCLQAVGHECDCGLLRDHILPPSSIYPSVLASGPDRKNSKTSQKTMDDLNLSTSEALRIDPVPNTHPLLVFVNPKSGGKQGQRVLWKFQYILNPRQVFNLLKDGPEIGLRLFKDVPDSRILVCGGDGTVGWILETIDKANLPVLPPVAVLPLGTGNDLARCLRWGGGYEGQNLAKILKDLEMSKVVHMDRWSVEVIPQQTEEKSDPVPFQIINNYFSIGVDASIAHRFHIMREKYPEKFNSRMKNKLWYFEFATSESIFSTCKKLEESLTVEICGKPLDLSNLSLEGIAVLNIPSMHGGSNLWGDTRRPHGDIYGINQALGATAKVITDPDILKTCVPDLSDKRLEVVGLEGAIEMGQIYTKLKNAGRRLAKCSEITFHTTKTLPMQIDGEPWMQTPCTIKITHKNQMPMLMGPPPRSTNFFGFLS
Sequence of DGKζ (Q13574 whole entry): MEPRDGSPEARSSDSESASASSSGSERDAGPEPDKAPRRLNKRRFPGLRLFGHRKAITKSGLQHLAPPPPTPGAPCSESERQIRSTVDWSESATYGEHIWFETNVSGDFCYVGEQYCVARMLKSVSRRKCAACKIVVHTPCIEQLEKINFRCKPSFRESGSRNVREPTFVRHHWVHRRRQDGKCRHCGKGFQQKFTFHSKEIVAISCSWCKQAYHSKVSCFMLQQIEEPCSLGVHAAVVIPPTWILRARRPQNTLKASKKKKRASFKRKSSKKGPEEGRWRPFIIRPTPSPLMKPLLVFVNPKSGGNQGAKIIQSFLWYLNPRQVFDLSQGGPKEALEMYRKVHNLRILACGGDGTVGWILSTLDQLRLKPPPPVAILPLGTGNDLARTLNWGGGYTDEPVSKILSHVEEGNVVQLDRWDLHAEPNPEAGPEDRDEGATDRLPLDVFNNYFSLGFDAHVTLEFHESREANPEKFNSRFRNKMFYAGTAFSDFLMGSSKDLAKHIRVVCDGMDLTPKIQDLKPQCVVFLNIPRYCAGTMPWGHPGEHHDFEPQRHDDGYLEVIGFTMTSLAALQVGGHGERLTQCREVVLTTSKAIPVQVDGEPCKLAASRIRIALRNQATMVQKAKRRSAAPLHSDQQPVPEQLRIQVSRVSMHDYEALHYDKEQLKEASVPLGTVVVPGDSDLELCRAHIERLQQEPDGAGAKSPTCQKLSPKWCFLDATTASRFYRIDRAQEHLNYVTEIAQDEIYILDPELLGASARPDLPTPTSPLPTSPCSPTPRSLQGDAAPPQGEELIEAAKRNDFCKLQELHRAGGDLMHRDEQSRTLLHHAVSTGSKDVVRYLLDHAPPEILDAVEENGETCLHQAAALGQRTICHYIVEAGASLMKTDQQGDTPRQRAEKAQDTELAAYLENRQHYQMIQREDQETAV

SMILES | IC50 (DGKα) | IC50 (DGKζ)
Cc1nc2c(N3C[C@@H](C)N(C(c4ccc(C(F)(F)F)cc4)C4CC(F)(F)C4)C[C@@H]3C)nc(=O)[nH]c2n1C[C@@H]1CCCO1 (single isomer, unassigned) [Example 14] | ≤ 0.01 µM | ≤ 0.1 µM
CC[C@@H]1CN(c2nc(=O)n(C)c3c2nnn3CC2(O)CCC2)[C@@H](C)CN1C(C)c1ccc(C(F)(F)F)cc1 (single isomer, unassigned) [Example 64] | ≤ 0.01 µM | ≤ 0.01 µM
C[C@@H]1CN(c2nc(=O)n(C)c3c2ncn3CC2(O)CCCC2)[C@@H](C)CN1C(c1ccc(Cl)cc1)C1CC(F)(F)C1 (single isomer, unassigned) [Example 66] | ≤ 0.01 µM | ≤ 0.01 µM
CC[C@@H]1CN(c2nc(=O)n(C)c3c2nc(C)n3C[C@H]2OCC[C@@H]2O)[C@@H](C)CN1C(c1ccc(C(F)(F)F)cc1)C1CC(F)(F)C1 (single isomer, unassigned) [Example 68] | ≤ 0.01 µM | ≤ 0.01 µM
CCC(c1ccc(C(F)(F)F)cc1)N1C[C@H](C)N(c2nc(=O)n(C)c3c2ncn3CC2(O)CCCC2)C[C@H]1CC (single isomer, unassigned) [Example 73] | ≤ 0.01 µM | ≤ 0.01 µM
Cc1nc2c(N3C[C@@H](C)N(C(c4ccc(F)cc4)c4ccc(F)cc4)C[C@@H]3C)nc(=O)[nH]c2n1C[C@@H]1CCCO1 [Example 1, 6-((2S,5R)-4-(Bis(4-fluorophenyl)methyl)-2,5-dimethylpiperazin-1-yl)-8-methyl-9-(((S)-tetrahydrofuran-2-yl)methyl)-3,9-dihydro-2H-purin-2-one] | ≤ 0.01 µM | ≤ 0.1 µM
Cc1nc2c(N3C[C@@H](C)N(C(c4ccc(F)cc4)c4ccc(F)cc4)C[C@@H]3C)nc(=O)n(C)c2n1C[C@@H]1CCCO1 [Example 2, 6-((2S,5R)-4-(Bis(4-fluorophenyl)methyl)-2,5-dimethylpiperazin-1-yl)-3,8-dimethyl-9-(((S)-tetrahydrofuran-2-yl)methyl)-3,9-dihydro-2H-purin-2-one] | ≤ 0.01 µM | ≤ 0.01 µM
Cc1nc2c(N3C[C@@H](CO)N(C(c4ccc(F)cc4)c4ccc(F)cc4)C[C@@H]3C)nc(=O)n(C)c2n1C[C@@H]1CCCO1 [Example 3, 6-((2S,5S)-4-(Bis(4-fluorophenyl)methyl)-5-(hydroxymethyl)-2-methylpiperazin-1-yl)-3,8-dimethyl-9-(((S)-tetrahydrofuran-2-yl)methyl)-3,9-dihydro-2H-purin-2-one] | ≤ 0.01 µM | ≤ 0.01 µM
CC[C@@H]1CN(c2nc(=O)[nH]c3c2nc(C)n3C[C@@H]2CCCO2)[C@@H](C)CN1C(c1ccc(F)cc1)c1ccc(F)cc1 [Example 4, 6-((2S,5R)-4-(Bis(4-fluorophenyl)methyl)-5-ethyl-2-methylpiperazin-1-yl)-8-methyl-9-(((S)-tetrahydrofuran-2-yl)methyl)-3,9-dihydro-2H-purin-2-one] | ≤ 0.01 µM | ≤ 0.01 µM
CC[C@@H]1CN(c2nc(=O)n(C)c3c2nc(C)n3C[C@@H]2CCCO2)[C@@H](C)CN1C(c1ccc(F)cc1)c1ccc(F)cc1 [Example 5, 6-((2S,5R)-4-(Bis(4-fluorophenyl)methyl)-5-ethyl-2-methylpiperazin-1-yl)-3,8-dimethyl-9-(((S)-tetrahydrofuran-2-yl)methyl)-3,9-dihydro-2H-purin-2-one] | ≤ 0.01 µM | ≤ 0.01 µM
C[C@@H]1CN(c2nc(=O)n(C)c3c2ccn3C[C@@H]2CCCO2)[C@@H](C)CN1C(c1ccc(F)cc1)c1ccc(F)cc1 [Example 6, 4-((2S,5R)-4-(Bis(4-fluorophenyl)methyl)-2,5-dimethylpiperazin-1-yl)-1-methyl-7-(((S)-tetrahydrofuran-2-yl)methyl)-1,7-dihydro-2H-pyrrolo[2,3-d]pyrimidin-2-one] | ≤ 0.01 µM | ≤ 0.1 µM
C[C@@H]1CN(c2nc(=O)n(C)c3c2cnn3C)[C@@H](C)CN1C(c1ccc(F)cc1)c1ccc(F)cc1 [Example 7, 4-((2S,5R)-4-(Bis(4-fluorophenyl)methyl)-2,5-dimethylpiperazin-1-yl)-1,7-dimethyl-1,7-dihydro-6H-pyrazolo[3,4-d]pyrimidin-6-one] | ≤ 0.01 µM | > 1 µM
C[C@@H]1CN(c2nc(=O)n(C)c3c2c(F)cn3C[C@@H]2CCCO2)[C@@H](C)CN1C(c1ccc(F)cc1)c1ccc(F)cc1 [Example 8, 4-((2S,5R)-4-(Bis(4-fluorophenyl)methyl)-2,5-dimethylpiperazin-1-yl)-5-fluoro-1-methyl-7-(((S)-tetrahydrofuran-2-yl)methyl)-1,7-dihydro-2H-pyrrolo[2,3-d]pyrimidin-2-one] | ≤ 0.1 µM | ≤ 0.1 µM
C[C@@H]1CN(c2nc(=O)[nH]c3c2ncn3C[C@@H]2CCCO2)[C@@H](C)CN1C(c1ccc(F)cc1)c1ccc(F)cc1 [Example 9, 6-((2S,5R)-4-(Bis(4-fluorophenyl)methyl)-2,5-dimethylpiperazin-1-yl)-9-(((S)-tetrahydrofuran-2-yl)methyl)-3,9-dihydro-2H-purin-2-one] | ≤ 0.1 µM | ≤ 0.1 µM
C[C@@H]1CN(c2nc(=O)n(C)c3c2ncn3C[C@@H]2CCCO2)[C@@H](C)CN1C(c1ccc(F)cc1)c1ccc(F)cc1 [Example 10, 6-((2S,5R)-4-(Bis(4-fluorophenyl)methyl)-2,5-dimethylpiperazin-1-yl)-3-methyl-9-(((S)-tetrahydrofuran-2-yl)methyl)-3,9-dihydro-2H-purin-2-one] | ≤ 0.01 µM | ≤ 0.01 µM
Cc1nc2c(N3C[C@@H](C)N(C(c4ccc(F)cc4)c4ccc(F)cc4)C[C@@H]3C)cc(=O)n(C)c2n1C[C@@H]1CCCO1 [Example 11, 7-((2S,5R)-4-(Bis(4-fluorophenyl)methyl)-2,5-dimethylpiperazin-1-yl)-2,4-dimethyl-3-(((S)-tetrahydrofuran-2-yl)methyl)-3,4-dihydro-5H-imidazo[4,5-b]pyridin-5-one] | ≤ 0.01 µM | ≤ 0.01 µM
C[C@@H]1CN(c2nc(=O)n(C)c3c2nnn3C[C@@H]2CCCO2)[C@@H](C)CN1C(c1ccc(F)cc1)c1ccc(F)cc1 [Example 12, 7-((2S,5R)-4-(Bis(4-fluorophenyl)methyl)-2,5-dimethylpiperazin-1-yl)-4-methyl-3-(((S)-tetrahydrofuran-2-yl)methyl)-3,4-dihydro-5H-[1,2,3]triazolo[4,5-d]pyrimidin-5-one] | ≤ 0.01 µM | ≤ 0.01 µM

Results, then the compound that gave them:

IC50 (DGKα) | IC50 (DGKζ) | SMILES
≤ 0.01 µM | ≤ 0.01 µM | Cc1nc2c(N3C[C@@H](C)N(C(c4ccc(C(F)(F)F)cc4)C4CC(F)(F)C4)C[C@@H]3C)nc(=O)n(C)c2n1C[C@@H]1CCCO1 (single isomer, unassigned) [Example 15]
≤ 0.01 µM | ≤ 0.01 µM | CC(C)CC(c1ccc(Cl)cc1)N1C[C@H](C)N(c2nc(=O)n(C)c3c2nnn3C[C@@H]2CCCO2)C[C@H]1C (single isomer, unassigned) [Example 17]
≤ 0.01 µM | ≤ 0.01 µM | CC(C)CC(c1ccc(Cl)cc1)N1C[C@H](C)N(c2nc(=O)n(C)c3c2nnn3C[C@H]2CCCO2)C[C@H]1C (single isomer, unassigned) [Example 18]
≤ 0.01 µM | ≤ 0.01 µM | CC(C)CC(c1ccc(Cl)cc1)N1C[C@H](C)N(c2nc(=O)n(C)c3c2ncn3C[C@H]2OCC[C@@H]2O)C[C@H]1C (single isomer, unassigned) [Example 19]
≤ 0.01 µM | ≤ 0.01 µM | CC[C@@H]1CN(c2nc(=O)n(C)c3c2nnn3C[C@H]2CCCO2)[C@@H](C)CN1C(CC(C)C)c1ccc(Cl)cc1 (single isomer, unassigned) [Example 20]
– | ≤ 0.01 µM | Cc1nc2c(N3C[C@@H](C)N(C(c4ccc(C(F)(F)F)cc4)[C@H]4CC4(F)F)C[C@@H]3C)nc(=O)n(C)c2n1C[C@@H]1CCCO1 (single isomer, unassigned) [Example 21]
≤ 0.01 µM | ≤ 0.01 µM | Cc1nc2c(N3C[C@@H](C)N(C(c4ccc(C(F)(F)F)cc4)C4CC(F)(F)C4)C[C@@H]3C)nc(=O)n(C)c2n1C[C@H]1OCC[C@@H]1O (single isomer, unassigned) [Example 34]
≤ 0.01 µM | ≤ 0.01 µM | Cc1nc2c(N3C[C@@H](C)N(C(c4ccc(C(F)(F)F)cc4)C4CC(F)(F)C4)C[C@@H]3C)nc(=O)n(C)c2n1C[C@H]1OCC[C@H]1O (single isomer, unassigned) [Example 35]
≤ 0.01 µM | ≤ 0.01 µM | Cc1nc2c(N3C[C@@H](C(F)F)N(C(c4ccc(C(F)(F)F)cc4)C4CC(F)(F)C4)C[C@@H]3C)nc(=O)n(C)c2n1C[C@@H]1CCCO1 (single isomer, unassigned) [Example 42]
≤ 0.01 µM | ≤ 0.01 µM | CC[C@@H]1CN(c2nc(=O)n(C)c3c2nc(C)n3C[C@@H]2CCCO2)[C@@H](C)CN1C(c1ccc(C(F)(F)F)c(F)c1)C(C)C (single isomer, unassigned) [Example 46]

Source: patent US20250066363A1, “Bicyclic DGK Inhibitors” (Incyte Corporation, priority 2023, published 2025)
